From patent US7247611B2, “Compositions and methods for promoting internalization and degradation of urokinase-type plasminogen activator” (The Trustees of the University of Pennsylvania, priority 1997, dated 2007)
“Also recorded” adds a separate entry of the source.

Key:
LM-TK^− cells = experiment: Internalization and degradation of 125I-scuPA by LM-TK^− cells; format: cell-based
Protocol: LM-TK^− cells were grown overnight at 37° C. to confluence in 48-well Falcon™ Multiwell tissue culture dishes (Becton Dickinson, Lincoln Park, N.J.). Cells were prechilled on ice for one hour, washed twice with a buffer comprising TBS, 4 millimolar Ca^2+, and 3% (w/v) BSA, and incubated for one hour at room temperature with the same buffer or with buffer supplemented with either 400 nanomolar rRAP or 100 micrograms per milliliter IgG anti-α2MR/LRP. The buffer was removed, ^125I -scuPA was added to the cells, and the cells were incubated for two hours at 4° C. in the presence of 0-300 micromolar peptide, 0 or 400 nanomolar rRAP, and 0 or 100 micrograms per milliliter anti-α2MR/LRP. Unbound ligand was removed and cells were washed five times with the buffer. DMEM comprising 4 millimolar Ca^2+, 0 or 400 nanomolar rRAP, and 0 or 100 micrograms per milliliter anti-α2MR/LRP was added to the cells, and the cells were incubated for eighteen hours at 37° C. […] Briefly, to measure internalization, cells were washed twice with the buffer, a solution comprising 50 millimolar glycine 150 millimolar NaCl at pH 3.0 was added to the cells, and the cells were incubated for fifteen minutes at 4° C. to dissociate cell surface-bound ligands. […] Radioactivity in the cell extract was assessed.

purified α2MR/LRP = experiment: Solid phase binding assay of 125I-labeled ligands to immobilized purified α2MR/LRP
Protocol: To measure the binding of labeled ligands to α2MR/LRP, a 96-well microtiter plate was incubated with 3 micrograms per milliliter purified α2MR/LRP or with 3 micrograms per milliliter BSA in TBS containing 4 millimolar Ca^2+ overnight at 4° C. The buffer was removed, and the non-reacted sites on the plate were blocked using a blocking solution comprising TBS, 4 millimolar Ca^2+, 0.05% (v/v) Tween-20, and 3% (w/v) BSA. The wells of the plate were filled with the blocking solution and incubated for one hour at 4° C. Next, the blocking solution was removed, each well was filled with a solution comprising blocking solution and 0 or 200 nanomolar rRAP, and the plate was incubated at 4° C. for another hour. Binding of ^125I-labeled ligands to immobilized α2MR/LRP was determined as described (Higazi et al., 1996, Blood 88:542-551; Nykjaer et al., 1993, J. Biol. Chem. 268:15048-15055).

[1] = test system: LM-TK^− cells (α2MR^+/LRP, uPAR^−); experiment: Ligand binding assay: binding of 125I-labeled scuPA, tcuPA and their suPAR complexes to LM-TK^− cells; format: cell-based; details: for promotion of scuPA binding to LM-TK^− cells: 1B
Protocol: Briefly, LM-TK^− cells were suspended in DMEM (GIBCO, Grand Island, N.Y.) containing 10% (v/v) fetal calf serum and were grown to confluence at 37° C. overnight in 96-well Falcon™ multiwell tissue culture dishes (Becton Dickinson, Lincoln Park, N.J.). The cells were chilled for one hour on ice and were washed twice with chilled binding buffer. ^125I-labeled ligands, with or without 50-fold molar excess of non-labeled ligands, were added to the cells in the presence or absence of 0-300 micromolar peptide, and the cell cultures were incubated for two hours at 4° C. The cells were washed four times with binding buffer, solubilized in 0.1 N NaOH, and the cell extract was assessed for radioactivity. […] Assays were repeated at least three times, and data presented herein represent the mean and standard deviation.

PAI-1 = molecular target: T1, PAI-1 (Homo sapiens, UniProt P05121); experiment: Assessment of plasminogen activator activity (inhibition of PAI-1 activity, tcuPA as substrate of PAI-1); format: biochemical; details: 5 nanomolar tcuPA, 200 micromolar peptide, 25 nanomolar PAI-1; FIG. 4
T1 construct: purchased American Diagnostica, Inc. (Greenwich, Conn.)
Protocol: A solution comprising 5 nanomolar tcuPA, 0 or 200 micromolar peptide EEIIMD (SEQ ID NO: 3), and 0 or 200 micromolar peptide REIIMD (SEQ ID NO: 4) was incubated for thirty minutes. The solution was then added to a reaction mixture comprising 25 nanomolar PAI-1, 50 nanomolar Glu-plasminogen, and 50 micromolar chromogenic substrate, and the optical density of the mixture at 405 nanometers was measured continuously, as described (Higazi et al., 1996, Blood 87:3545-3549).

scuPA-uPAR complex = scuPA-uPAR complex (Homo sapiens, UniProt P00749); experiment: scuPA-uPAR complex formation; format: binding

“rRAP: recombinant 39 kilodalton α2MR/LRP. (receptor-associated protein), inhibits ligand binding to α2MR/LRP [reference compound]” was tested, and the “inhibition of EEIIMD-promoted scuPA internalization and degradation by LM-TK^− cells” value (LM-TK^− cells; 400 nanomolar rRAP) was “approximately 70%”, the “effect on EEIIMD-promoted binding of scuPA to purified α2MR/LRP” value (purified α2MR/LRP; 200 nanomolar rRAP, FIG. 5A) was “inhibited” and the “inhibition of EEIIMD-promoted binding of scuPA to LM-TK^− cells” value ([1]; 400 nanomolar rRAP, FIG. 5B) was “approximately 70%”.
“REIIMD [hexapeptide, amino terminal Glu of EEIIMD substituted by Arg]” was tested, and the “promotion of scuPA binding to LM-TK^− cells” value ([1]; FIG. 1A) was “nearly as potent a promoter of scuPA binding to LM-TK^− cells as was peptide EEIIMD”.
In the case of “EEIIMD [hexapeptide homologous with amino acids 350-355 of PAI-1]”, the “inhibition of PAI-1 activity” value (PAI-1) is reported as “inhibits PAI-1 activity; also recorded: competitive inhibitor of PAI-1 binding to tcuPA”, the “effect on internalization and degradation of scuPA by LM-TK^− cells” value (LM-TK^− cells; eighteen hours at 37° C., FIG. 6) is reported as “promoted both internalization and degradation; also recorded: accelerated the rate of internalization and degradation” and the “effect on binding of tcuPA to purified α2MR/LRP” value (purified α2MR/LRP) is reported as “had no effect”. For the same substance, the “effect on binding of the scuPA-suPAR complex to α2MR/LRP” value (purified α2MR/LRP) was “had no effect”, the “effect on binding of scuPA to purified α2MR/LRP” value (purified α2MR/LRP; FIG. 5A) was “promoted binding of scuPA to purified α2MR/LRP” and the “effect on binding of tcuPA to LM-TK^− cells” value [1] was “failed to stimulate binding of tcuPA; also recorded: had no effect”. For the same substance, the “promotion of scuPA binding to LM-TK^− cells” value ([1]; FIG. 1A) was “promoted binding”, the “peptide concentration giving near-maximal effect on scuPA binding to LM-TK^− cells” value ([1]; FIG. 1B) was “approximately 300 micromolar” and the “effect on binding of the scuPA-suPAR complex to LM-TK^− cells” value ([1]; FIG. 3) was “minimal increase”. For the same substance, the “effect on binding of the tcuPA-suPAR complex to LM-TK^− cells” value ([1]; FIG. 3) was “had no effect”, the “increase in the value of Bmax for scuPA binding to LM-TK^− cells” value ([1]; presence versus absence of the peptide, two hours at 4° C.) was “four-fold” and the EC50 ([1]; read-out: peptide concentration for half maximal stimulation of scuPA binding to LM-TK^− cells, FIG. 1B) was about 50 µM. For the same substance, the “scuPA-binding-promoting effect in the presence of PAI-1” value ([1]; scuPA preincubated with PAI-1, FIG. 2) was “identical to the effect observed in the absence of PAI-1” and the “effect on scuPA-uPAR complex formation” value (scuPA-uPAR complex) was “did not affect”.
With “EEIIMR [hexapeptide, carboxyl terminal Asp of EEIIMD substituted by Arg; control peptide]” the “inhibition of PAI-1 activity” value (PAI-1) was “did not inhibit PAI-1 activity” and the “scuPA-binding-promoting activity relative to that of peptide EEIIMD” value ([1]; LM-TK^− cells, FIG. 1A) was “approximately 20%”.
